This note sets out measurements from patent US11667602B2, “Compounds and their use” (AstraZeneca AB, priority 2020, dated 2023).

Where only a bound is given, the exact number is not on record here.

This test deals with T1, human RXFP1 (Homo sapiens, UniProt Q9HBX9).
T1 sequence (Q9HBX9 1-757): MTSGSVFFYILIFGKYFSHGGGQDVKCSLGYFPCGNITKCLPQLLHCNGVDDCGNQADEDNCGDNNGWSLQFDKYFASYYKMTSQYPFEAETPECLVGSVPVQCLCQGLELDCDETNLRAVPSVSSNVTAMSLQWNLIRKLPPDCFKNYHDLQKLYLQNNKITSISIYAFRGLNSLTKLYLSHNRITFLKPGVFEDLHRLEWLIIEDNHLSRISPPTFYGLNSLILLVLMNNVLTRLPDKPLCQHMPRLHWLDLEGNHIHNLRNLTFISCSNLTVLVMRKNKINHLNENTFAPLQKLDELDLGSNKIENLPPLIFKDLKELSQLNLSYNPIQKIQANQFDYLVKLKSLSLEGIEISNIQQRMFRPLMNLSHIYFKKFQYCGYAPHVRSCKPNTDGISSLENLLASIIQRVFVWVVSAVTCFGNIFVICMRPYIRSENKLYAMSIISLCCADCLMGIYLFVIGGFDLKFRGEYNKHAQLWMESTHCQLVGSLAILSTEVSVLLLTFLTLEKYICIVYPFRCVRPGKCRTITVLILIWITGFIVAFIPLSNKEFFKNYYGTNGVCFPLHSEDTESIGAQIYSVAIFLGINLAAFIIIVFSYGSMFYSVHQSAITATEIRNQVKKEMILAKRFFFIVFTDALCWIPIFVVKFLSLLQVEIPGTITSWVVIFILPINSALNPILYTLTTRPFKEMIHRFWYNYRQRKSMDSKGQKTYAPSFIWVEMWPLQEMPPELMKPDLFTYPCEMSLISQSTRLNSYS
In words: RXFP1 Hu cAMP (Test A). Type of test: cell-based. The note with it: RXFP1 Hu cAMP; for EC50: read-out: Test A EC50. The arrangement: expressed in transfected cells; host or cells: Jump-In T-REx CHO-K1 cells (ThermoFisher), induced with 10 ng/ml doxycycline for 24 h. The essentials:
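Competitive HTRF cAMP readout (2 h, room temperature) in CHO-K1 cells stably expressing human RXFP1, induced with 10 ng/ml doxycycline for 24 h; IBMX 0.5 mM final.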

One may read the EC50 as the midpoint of the concentration-response curve. Take `COc1cc(F)c(OC2CCC(CO)(C(=O)O)CC2)cc1C(=O)N[C@H]1[C@H]2CC[C@H](C2)[C@H]1C(=O)Nc1cccc(S(=O)(=O)C(F)(F)F)c1` (relative stereo) [Example 585, (1R,4s)-4-(2-Fluoro-4-methoxy-5-(((1S*,2S*,3R*,4R*)-3-((3-((trifluoromethyl)sulfonyl)phenyl)carbamoyl)bicyclo[2.2.1]heptan-2-yl)carbamoyl)phenoxy)-1-(hydroxymethyl)cyclohexane-1-carboxylic acid]: the “Test A Sinf” value came out at 93% and the EC50 amounted to 240 nM.

`COc1cc(F)c(-c2ccc([C@@H]3C[C@H]3C(=O)O)nc2)cc1C(=O)N[C@@H]1[C@H]2CC[C@H](C2)[C@@H]1C(=O)Nc1cccc(S(=O)(=O)C(F)(F)F)c1` (single isomer, unassigned) [Example 262, (1R*,2R*)-2-(5-(2-Fluoro-4-methoxy-5-(((1S,2R,3S,4R)-3-((3-((trifluoromethyl)sulfonyl)phenyl)carbamoyl)bicyclo[2.2.1]heptan-2-yl)carbamoyl)phenyl)pyridin-2-yl)cyclopropane-1-carboxylic acid]: the “Test A Sinf” value is listed as 95% and the EC50 is 26 nM.

As to `COc1cc(F)c(-c2cnc([C@@H]3C[C@H]3C(=O)O)cn2)cc1C(=O)N[C@@H]1[C@H]2CC[C@H](C2)[C@@H]1C(=O)Nc1cccc(S(=O)(=O)C(F)(F)F)c1` (single isomer, unassigned) [Example 263, (1R*,2R*)-2-(5-(2-Fluoro-4-methoxy-5-(((1S,2R,3S,4R)-3-((3-((trifluoromethyl)sulfonyl)phenyl)carbamoyl)bicyclo[2.2.1]heptan-2-yl)carbamoyl)phenyl)pyrazin-2-yl)cyclopropane-1-carboxylic acid], the “Test A Sinf” value was found to be 106% and the EC50 was determined as 84 nM.

Turning to `COc1cc(F)c(-c2cnc([C@@H]3C[C@H]3C(=O)O)cn2)cc1C(=O)N[C@@H]1[C@H]2CC[C@H](C2)[C@@H]1C(=O)Nc1cccc(S(=O)(=O)C(F)(F)F)c1` (single isomer, unassigned) [Example 264, (1R*,2R*)-2-(5-(2-Fluoro-4-methoxy-5-(((1S,2R,3S,4R)-3-((3-((trifluoromethyl)sulfonyl)phenyl)carbamoyl)bicyclo[2.2.1]heptan-2-yl)carbamoyl)phenyl)pyrazin-2-yl)cyclopropane-1-carboxylic acid], the “Test A Sinf” value was 101% and the EC50 worked out at 82 nM.

Take `COc1cc(F)c(-c2ccc(C(=O)O)cc2)cc1C(=O)N[C@H]1[C@@H]2CC[C@@H](C2)[C@H]1C(=O)N[C@H]1CCCN(S(=O)(=O)C(F)(F)F)C1` (single isomer, unassigned) [Example 313, 2′-Fluoro-4′-methoxy-5′-(((1R*,2S*,3R*,4S*)-3-(((S)-1-((trifluoromethyl)sulfonyl)piperidin-3-yl)carbamoyl)bicyclo[2.2.1]heptan-2-yl)carbamoyl)-[1,1′-biphenyl]-4-carboxylic acid]: the EC50 is over 40000 nM.

For the compound `COc1cc(F)c(-c2ccc(C(=O)O)cc2)cc1C(=O)N[C@H]1[C@@H]2CC[C@@H](C2)[C@H]1C(=O)N[C@H]1CCCN(S(=O)(=O)C(F)(F)F)C1` (single isomer, unassigned) [Example 314, 2′-Fluoro-4′-methoxy-5′-(((1R*,2S*,3R*,4S*)-3-(((S)-1-((trifluoromethyl)sulfonyl)piperidin-3-yl)carbamoyl)bicyclo[2.2.1]heptan-2-yl)carbamoyl)-[1,1′-biphenyl]-4-carboxylic acid], the “Test A Sinf” value is 74% and the EC50 came out at 7800 nM.

Regarding `COc1cc(F)c(-c2ccc(CCS(N)(=O)=O)cc2)cc1C(=O)N[C@H]1[C@H]2CC[C@H](C2)[C@H]1C(=O)Nc1cccc(S(=O)(=O)C(F)(F)F)c1` (single isomer, unassigned) [Example 327], the EC50 was over 40000 nM.

For `COc1cc(F)c(OC2CCCC(C(=O)O)C2)cc1C(=O)N[C@@H]1[C@H]2CC[C@H](C2)[C@@H]1C(=O)Nc1cccc(S(=O)(=O)C(F)(F)F)c1` (single isomer, unassigned) [Example 446], the “Test A Sinf” value was found to be 98% and the EC50 was determined as 900 nM.

As to `COc1cc(F)c(OC2CCCC(C(=O)O)C2)cc1C(=O)N[C@@H]1[C@H]2CC[C@H](C2)[C@@H]1C(=O)Nc1cccc(S(=O)(=O)C(F)(F)F)c1` (single isomer, unassigned) [Example 447], the “Test A Sinf” value is listed as 94% and the EC50 worked out at 830 nM.

For `COc1cc(F)c(O[C@H]2CC[C@@](C)(C(=O)O)CC2)cc1C(=O)NC1CCN(C(C)=O)CC1C(=O)Nc1cccc(S(=O)(=O)C(F)(F)F)c1` (single isomer, unassigned) [Example 514, (1R,4s)-4-(5-(((3R*,4S*)-1-Acetyl-3-((3-((trifluoromethyl)sulfonyl)phenyl)carbamoyl)piperidin-4-yl)carbamoyl)-2-fluoro-4-methoxyphenoxy)-1-methylcyclohexane-1-carboxylic acid], the “Test A Sinf” value is given as 107% and the EC50 worked out at 15000 nM.

With `COc1cc(F)c(O[C@H]2CC[C@@](C)(C(=O)O)CC2)cc1C(=O)NC1CCCCCC1C(=O)Nc1cccc(S(=O)(=O)C(F)(F)F)c1` (single isomer, unassigned) [Example 516, (1R,4s)-4-(2-Fluoro-4-methoxy-5-(((1S*,2R*)-2-((3-((trifluoromethyl)sulfonyl)phenyl)carbamoyl)cycloheptyl)carbamoyl)phenoxy)-1-methylcyclohexane-1-carboxylic acid], the “Test A Sinf” value was determined as 104% and the half-maximal effective concentration (EC50) turned out to be 8 nM.

With `COc1cc(F)c(OC2CCC(C)(C(=O)O)CC2)cc1C(=O)NC1CC(OC)CC1C(=O)Nc1cccc(S(=O)(=O)C(F)(F)F)c1` (single isomer, unassigned) [Example 522, (1R,4s)-4-(2-Fluoro-4-methoxy-5-(((1S*,2R*,4S*)-4-methoxy-2-((3-((trifluoromethyl)sulfonyl)phenyl)carbamoyl)cyclopentyl)carbamoyl)phenoxy)-1-methylcyclohexane-1-carboxylic acid], the EC50 was over 40000 nM.

On to `COc1cc(F)c(O[C@H]2CC[C@@](C)(C(=O)O)CC2)cc1C(=O)NC1C(OC)CCC1C(=O)Nc1cccc(S(=O)(=O)C(F)(F)F)c1` (single isomer, unassigned) [Example 526, (1R,4s)-4-(2-Fluoro-4-methoxy-5-(((1S*,2S*,5S*)-2-methoxy-5-((3-((trifluoromethyl)sulfonyl)phenyl)carbamoyl)cyclopentyl)carbamoyl)phenoxy)-1-methylcyclohexane-1-carboxylic acid], for which the concentration for a half-maximal effect (EC50) is over 40000 nM.

Take `COc1cc(F)c(O[C@H]2CC[C@@](C)(C(=O)O)CC2)cc1C(=O)NC1C(O)CCC1C(=O)Nc1cccc(S(=O)(=O)C(F)(F)F)c1` (single isomer, unassigned) [Example 528, (1R,4s)-4-(2-Fluoro-5-(((1S*,2S*,5S*)-2-hydroxy-5-((3-((trifluoromethyl)sulfonyl)phenyl)carbamoyl)cyclopentyl)carbamoyl)-4-methoxyphenoxy)-1-methylcyclohexane-1-carboxylic acid]: the EC50 is over 40000 nM.

For the compound `COc1cc(F)c(O[C@H]2CC[C@@](C)(C(=O)O)CC2)cc1C(=O)NC1C2CCC(O2)C1C(=O)NCC1(C)CCC1` (single isomer, unassigned) [Example 530, (1R,4s)-4-(2-Fluoro-4-methoxy-5-(((1S*,2S*,3R*,4R*)-3-(((1-methylcyclobutyl)methyl)carbamoyl)-7-oxabicyclo[2.2.1]heptan-2-yl)carbamoyl)phenoxy)-1-methylcyclohexane-1-carboxylic acid], the “Test A Sinf” value amounted to 96% and the concentration giving a half-maximal response (EC50) came to 170 nM.

Turning to `COc1cc(F)c(O[C@H]2CC[C@@](CO)(C(=O)O)CC2)cc1C(=O)NC1C2CCC(O2)C1C(=O)NCC1(C)CCC1` (single isomer, unassigned) [Example 532, (1R,4s)-4-(2-Fluoro-4-methoxy-5-(((1S*,2S*,3R*,4R*)-3-(((1-methylcyclobutyl)methyl)carbamoyl)-7-oxabicyclo[2.2.1]heptan-2-yl)carbamoyl)phenoxy)-1-(hydroxymethyl)cyclohexane-1-carboxylic acid], the “Test A Sinf” value was determined as 104% and the EC50 was 140 nM.

`COc1cc(C#N)c(OC2CCC(C)(C(=O)O)CC2)cc1C(=O)NC1C(C(=O)NCC2(C)CCC2)C2CCC1N2CCC(F)(F)F` (single isomer, unassigned) [Example 537, (1R,4s)-4-(2-Cyano-4-methoxy-5-(((1S*,2S*,3R*,4R*)-3-(((1-methylcyclobutyl)methyl)carbamoyl)-7-(3,3,3-trifluoropropyl)-7-azabicyclo[2.2.1]heptan-2-yl)carbamoyl)phenoxy)-1-methylcyclohexane-1-carboxylic acid]: the “Test A Sinf” value is given as 77% and the half-maximal effective concentration (EC50) stood at 6000 nM.
